Source: ChEMBL document CHEMBL5291721, “A preclinical secondary pharmacology resource illuminates target-adverse drug reaction associations of marketed drugs” (Nat Commun, 2023)

Legend:
[1] = target: Sodium-dependent noradrenaline transporter (Homo sapiens, UniProt P23975)
Mu-type opioid receptor = Mu-type opioid receptor (Homo sapiens, UniProt P35372)
D(3) dopamine receptor = D(3) dopamine receptor (Homo sapiens, UniProt P35462)
Estrogen receptor = target: T1, Estrogen receptor (Homo sapiens, UniProt P03372)
T1 sequence (P03372 whole entry): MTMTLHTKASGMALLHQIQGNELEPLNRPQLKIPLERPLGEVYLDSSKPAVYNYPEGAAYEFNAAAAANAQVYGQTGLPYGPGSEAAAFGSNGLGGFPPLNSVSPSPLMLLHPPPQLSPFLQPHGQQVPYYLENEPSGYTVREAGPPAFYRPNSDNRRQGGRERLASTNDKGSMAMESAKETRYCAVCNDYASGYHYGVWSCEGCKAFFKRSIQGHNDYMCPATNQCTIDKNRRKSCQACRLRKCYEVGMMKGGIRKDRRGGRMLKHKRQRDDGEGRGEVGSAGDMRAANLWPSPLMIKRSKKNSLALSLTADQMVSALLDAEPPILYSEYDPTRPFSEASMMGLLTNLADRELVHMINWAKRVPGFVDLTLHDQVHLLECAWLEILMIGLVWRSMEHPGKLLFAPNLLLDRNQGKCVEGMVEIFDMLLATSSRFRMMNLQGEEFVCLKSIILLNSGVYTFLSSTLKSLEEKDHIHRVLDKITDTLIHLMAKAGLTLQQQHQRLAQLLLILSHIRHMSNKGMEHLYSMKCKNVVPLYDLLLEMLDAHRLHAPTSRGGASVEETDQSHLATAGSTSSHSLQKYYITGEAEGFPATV

[2] = target: T2, Muscarinic acetylcholine receptor M2 (Homo sapiens, UniProt P08172)
T2 sequence (P08172 whole entry): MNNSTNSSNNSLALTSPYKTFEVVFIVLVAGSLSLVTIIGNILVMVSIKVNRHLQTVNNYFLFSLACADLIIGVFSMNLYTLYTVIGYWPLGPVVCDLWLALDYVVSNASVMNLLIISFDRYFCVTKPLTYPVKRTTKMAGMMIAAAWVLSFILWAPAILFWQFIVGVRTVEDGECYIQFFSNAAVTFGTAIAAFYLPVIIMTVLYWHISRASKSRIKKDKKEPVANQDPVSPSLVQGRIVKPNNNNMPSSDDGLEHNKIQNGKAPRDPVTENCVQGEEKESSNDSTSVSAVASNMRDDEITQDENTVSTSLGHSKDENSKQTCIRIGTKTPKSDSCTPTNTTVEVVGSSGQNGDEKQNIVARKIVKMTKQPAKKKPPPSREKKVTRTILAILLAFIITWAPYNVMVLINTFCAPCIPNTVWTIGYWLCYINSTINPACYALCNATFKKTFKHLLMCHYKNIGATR

[3] = target: Voltage-gated inwardly rectifying potassium channel KCNH2 (Homo sapiens, UniProt Q12809); type: functional; conditions: read-out: AC50
Sequence of Voltage-gated inwardly rectifying potassium channel KCNH2 (Q12809 whole entry): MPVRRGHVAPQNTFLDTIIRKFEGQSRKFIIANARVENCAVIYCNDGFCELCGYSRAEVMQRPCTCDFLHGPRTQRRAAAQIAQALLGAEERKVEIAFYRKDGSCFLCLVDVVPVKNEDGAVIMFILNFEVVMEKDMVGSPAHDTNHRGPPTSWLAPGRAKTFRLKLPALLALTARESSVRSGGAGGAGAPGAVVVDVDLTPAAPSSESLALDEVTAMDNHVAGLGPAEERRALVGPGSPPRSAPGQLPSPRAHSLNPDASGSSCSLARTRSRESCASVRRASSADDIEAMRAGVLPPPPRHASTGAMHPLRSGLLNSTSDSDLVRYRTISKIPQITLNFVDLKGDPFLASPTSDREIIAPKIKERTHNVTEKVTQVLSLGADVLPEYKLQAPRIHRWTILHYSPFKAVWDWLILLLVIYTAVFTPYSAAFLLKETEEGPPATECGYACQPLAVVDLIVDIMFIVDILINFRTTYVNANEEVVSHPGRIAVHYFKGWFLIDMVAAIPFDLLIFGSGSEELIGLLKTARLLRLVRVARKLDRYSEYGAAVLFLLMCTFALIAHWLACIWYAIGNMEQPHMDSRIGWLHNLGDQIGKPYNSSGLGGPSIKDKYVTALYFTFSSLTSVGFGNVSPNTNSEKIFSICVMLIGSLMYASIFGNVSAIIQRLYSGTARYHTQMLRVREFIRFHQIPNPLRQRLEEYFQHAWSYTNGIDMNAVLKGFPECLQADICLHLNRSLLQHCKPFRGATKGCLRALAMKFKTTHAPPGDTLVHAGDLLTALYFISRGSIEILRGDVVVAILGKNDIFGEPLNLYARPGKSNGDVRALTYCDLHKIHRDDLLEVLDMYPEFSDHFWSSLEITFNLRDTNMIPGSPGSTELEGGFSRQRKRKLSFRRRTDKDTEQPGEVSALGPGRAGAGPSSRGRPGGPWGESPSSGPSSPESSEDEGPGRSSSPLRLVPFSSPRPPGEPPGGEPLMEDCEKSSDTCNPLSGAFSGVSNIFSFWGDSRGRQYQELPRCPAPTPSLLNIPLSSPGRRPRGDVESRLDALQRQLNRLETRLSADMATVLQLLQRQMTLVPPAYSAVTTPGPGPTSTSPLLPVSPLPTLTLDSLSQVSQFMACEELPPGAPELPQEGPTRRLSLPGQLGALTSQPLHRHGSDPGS

Thromboxane A2 receptor [4] = target: T3, Thromboxane A2 receptor (Homo sapiens, UniProt P21731); type: functional, cell-based
T3 sequence (P21731 whole entry): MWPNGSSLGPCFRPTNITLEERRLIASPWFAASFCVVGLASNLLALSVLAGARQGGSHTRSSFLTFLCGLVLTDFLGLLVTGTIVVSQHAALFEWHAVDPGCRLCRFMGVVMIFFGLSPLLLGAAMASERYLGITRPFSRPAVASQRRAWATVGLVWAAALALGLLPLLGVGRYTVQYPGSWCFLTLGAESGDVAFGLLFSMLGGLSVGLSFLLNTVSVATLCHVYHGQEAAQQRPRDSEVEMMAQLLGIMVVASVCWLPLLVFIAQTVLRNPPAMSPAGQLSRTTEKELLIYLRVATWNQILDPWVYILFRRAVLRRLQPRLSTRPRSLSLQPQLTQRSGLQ

Acetylcholinesterase = Acetylcholinesterase (Homo sapiens, UniProt P22303); type: functional
Sequence of Acetylcholinesterase (P22303 whole entry): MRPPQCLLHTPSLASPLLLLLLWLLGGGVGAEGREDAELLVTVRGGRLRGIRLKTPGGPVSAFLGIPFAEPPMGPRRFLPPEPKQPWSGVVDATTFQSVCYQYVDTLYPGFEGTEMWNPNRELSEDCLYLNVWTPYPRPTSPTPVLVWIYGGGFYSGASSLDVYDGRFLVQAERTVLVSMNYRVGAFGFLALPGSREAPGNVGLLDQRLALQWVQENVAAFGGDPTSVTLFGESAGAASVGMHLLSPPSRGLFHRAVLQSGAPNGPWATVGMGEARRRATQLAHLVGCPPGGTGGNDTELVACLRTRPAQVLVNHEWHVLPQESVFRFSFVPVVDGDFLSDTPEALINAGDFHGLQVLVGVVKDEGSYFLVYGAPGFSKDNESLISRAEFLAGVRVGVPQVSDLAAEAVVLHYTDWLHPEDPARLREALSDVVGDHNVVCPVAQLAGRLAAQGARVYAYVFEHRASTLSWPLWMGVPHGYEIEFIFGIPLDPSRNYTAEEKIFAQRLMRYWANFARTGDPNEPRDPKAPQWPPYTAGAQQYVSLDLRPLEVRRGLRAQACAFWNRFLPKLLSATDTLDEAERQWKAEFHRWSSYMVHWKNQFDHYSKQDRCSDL

[5] = target: T4, Alpha-2A adrenergic receptor (Homo sapiens, UniProt P08913)
T4 sequence (P08913 whole entry): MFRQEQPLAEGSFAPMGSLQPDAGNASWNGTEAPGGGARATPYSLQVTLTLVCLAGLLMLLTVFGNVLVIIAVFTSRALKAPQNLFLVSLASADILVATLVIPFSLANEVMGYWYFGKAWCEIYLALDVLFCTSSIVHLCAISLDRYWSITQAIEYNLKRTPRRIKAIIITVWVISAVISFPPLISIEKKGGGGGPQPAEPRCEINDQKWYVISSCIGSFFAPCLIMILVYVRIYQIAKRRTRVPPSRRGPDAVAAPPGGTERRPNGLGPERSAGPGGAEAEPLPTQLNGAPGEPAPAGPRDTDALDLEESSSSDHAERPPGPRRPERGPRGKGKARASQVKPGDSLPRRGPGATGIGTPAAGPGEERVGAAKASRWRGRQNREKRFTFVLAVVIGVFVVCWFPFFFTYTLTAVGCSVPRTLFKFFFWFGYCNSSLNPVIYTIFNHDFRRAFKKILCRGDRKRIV

[6] = target: cGMP-inhibited 3',5'-cyclic phosphodiesterase 3A (Homo sapiens, UniProt Q14432); type: functional
Sequence of cGMP-inhibited 3',5'-cyclic phosphodiesterase 3A (Q14432 whole entry): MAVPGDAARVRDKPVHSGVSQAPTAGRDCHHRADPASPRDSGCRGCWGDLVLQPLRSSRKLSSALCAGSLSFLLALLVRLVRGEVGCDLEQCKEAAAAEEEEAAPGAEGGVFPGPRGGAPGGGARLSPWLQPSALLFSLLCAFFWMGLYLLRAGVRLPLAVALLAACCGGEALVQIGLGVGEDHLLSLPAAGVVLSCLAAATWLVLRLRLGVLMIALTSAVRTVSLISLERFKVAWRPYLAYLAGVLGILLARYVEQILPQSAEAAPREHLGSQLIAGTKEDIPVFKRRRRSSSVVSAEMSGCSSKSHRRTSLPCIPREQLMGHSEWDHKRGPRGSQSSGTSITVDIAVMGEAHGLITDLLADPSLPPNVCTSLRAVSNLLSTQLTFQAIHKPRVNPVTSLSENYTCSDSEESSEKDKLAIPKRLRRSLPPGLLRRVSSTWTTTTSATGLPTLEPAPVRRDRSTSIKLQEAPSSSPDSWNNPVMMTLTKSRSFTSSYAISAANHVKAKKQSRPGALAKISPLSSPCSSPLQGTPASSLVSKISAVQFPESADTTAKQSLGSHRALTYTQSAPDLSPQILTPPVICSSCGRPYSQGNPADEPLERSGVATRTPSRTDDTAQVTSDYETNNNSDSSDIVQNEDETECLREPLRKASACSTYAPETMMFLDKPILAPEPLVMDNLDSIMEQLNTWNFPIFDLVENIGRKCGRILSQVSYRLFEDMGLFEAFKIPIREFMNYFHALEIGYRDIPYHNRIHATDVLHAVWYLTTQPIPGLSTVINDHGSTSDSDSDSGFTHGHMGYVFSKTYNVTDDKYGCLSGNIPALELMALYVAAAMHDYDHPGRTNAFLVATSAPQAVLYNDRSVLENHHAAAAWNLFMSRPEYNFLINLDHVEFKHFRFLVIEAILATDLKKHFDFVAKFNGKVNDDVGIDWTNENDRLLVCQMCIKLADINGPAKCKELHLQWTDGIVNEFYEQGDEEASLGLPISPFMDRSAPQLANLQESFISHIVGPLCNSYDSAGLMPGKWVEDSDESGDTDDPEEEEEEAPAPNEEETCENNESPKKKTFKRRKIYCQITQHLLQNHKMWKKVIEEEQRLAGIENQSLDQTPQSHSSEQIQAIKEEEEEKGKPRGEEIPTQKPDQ

[7] = target: Sodium-dependent serotonin transporter (Homo sapiens, UniProt P31645)
Sequence of Sodium-dependent serotonin transporter (P31645 whole entry): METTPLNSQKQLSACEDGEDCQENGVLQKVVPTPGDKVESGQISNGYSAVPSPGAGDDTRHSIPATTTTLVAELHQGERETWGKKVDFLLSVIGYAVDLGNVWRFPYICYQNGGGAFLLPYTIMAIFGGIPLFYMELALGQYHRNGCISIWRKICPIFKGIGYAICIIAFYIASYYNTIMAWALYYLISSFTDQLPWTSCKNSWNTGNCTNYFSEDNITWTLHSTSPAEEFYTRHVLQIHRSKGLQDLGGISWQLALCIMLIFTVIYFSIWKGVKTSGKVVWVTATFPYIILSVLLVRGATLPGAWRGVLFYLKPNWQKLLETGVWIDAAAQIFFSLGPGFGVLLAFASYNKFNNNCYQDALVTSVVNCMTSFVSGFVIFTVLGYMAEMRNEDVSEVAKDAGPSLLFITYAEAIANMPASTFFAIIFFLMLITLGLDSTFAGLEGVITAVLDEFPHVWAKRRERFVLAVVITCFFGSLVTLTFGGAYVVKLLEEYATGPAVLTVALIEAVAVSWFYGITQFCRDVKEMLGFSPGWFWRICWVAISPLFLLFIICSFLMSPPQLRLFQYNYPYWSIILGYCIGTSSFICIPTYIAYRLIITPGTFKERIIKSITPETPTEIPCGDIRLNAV

Adenosine receptor A3 = target: T5, Adenosine receptor A3 (Homo sapiens, UniProt P0DMS8)
T5 sequence (P0DMS8 whole entry): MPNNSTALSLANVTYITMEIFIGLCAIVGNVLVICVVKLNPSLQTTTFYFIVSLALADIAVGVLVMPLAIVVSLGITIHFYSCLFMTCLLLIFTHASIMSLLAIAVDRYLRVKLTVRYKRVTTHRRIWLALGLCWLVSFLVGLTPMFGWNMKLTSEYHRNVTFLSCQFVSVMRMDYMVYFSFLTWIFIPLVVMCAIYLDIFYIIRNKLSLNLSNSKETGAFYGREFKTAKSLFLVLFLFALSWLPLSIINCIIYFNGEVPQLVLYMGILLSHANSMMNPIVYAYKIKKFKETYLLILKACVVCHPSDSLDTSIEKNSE

Thromboxane A2 receptor [8] = target: T3, Thromboxane A2 receptor; type: functional, cell-based; remark: listed apart in the source
Note: assay procedure not described here.

Sequence of Mu-type opioid receptor (P35372 whole entry): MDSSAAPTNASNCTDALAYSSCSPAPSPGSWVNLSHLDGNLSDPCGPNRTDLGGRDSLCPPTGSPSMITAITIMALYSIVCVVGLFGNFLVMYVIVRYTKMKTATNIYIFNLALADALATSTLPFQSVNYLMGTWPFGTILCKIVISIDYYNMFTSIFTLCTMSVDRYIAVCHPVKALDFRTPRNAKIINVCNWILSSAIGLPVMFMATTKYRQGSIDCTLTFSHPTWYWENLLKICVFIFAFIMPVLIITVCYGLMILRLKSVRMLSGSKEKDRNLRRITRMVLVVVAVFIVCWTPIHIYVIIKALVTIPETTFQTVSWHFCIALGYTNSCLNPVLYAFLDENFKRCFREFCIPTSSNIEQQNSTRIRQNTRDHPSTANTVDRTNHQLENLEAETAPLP
Sequence of D(3) dopamine receptor (P35462 whole entry): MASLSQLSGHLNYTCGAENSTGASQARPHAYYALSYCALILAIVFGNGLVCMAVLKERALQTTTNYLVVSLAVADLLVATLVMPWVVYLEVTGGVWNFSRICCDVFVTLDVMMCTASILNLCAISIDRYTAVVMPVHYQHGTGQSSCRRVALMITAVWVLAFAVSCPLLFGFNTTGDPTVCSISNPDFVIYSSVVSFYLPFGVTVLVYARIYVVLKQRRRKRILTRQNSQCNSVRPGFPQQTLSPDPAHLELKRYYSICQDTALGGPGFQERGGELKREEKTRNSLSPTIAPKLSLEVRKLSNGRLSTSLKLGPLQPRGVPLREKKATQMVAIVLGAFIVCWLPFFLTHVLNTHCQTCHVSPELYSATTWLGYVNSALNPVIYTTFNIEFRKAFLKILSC
Sequence of Sodium-dependent noradrenaline transporter (P23975 whole entry): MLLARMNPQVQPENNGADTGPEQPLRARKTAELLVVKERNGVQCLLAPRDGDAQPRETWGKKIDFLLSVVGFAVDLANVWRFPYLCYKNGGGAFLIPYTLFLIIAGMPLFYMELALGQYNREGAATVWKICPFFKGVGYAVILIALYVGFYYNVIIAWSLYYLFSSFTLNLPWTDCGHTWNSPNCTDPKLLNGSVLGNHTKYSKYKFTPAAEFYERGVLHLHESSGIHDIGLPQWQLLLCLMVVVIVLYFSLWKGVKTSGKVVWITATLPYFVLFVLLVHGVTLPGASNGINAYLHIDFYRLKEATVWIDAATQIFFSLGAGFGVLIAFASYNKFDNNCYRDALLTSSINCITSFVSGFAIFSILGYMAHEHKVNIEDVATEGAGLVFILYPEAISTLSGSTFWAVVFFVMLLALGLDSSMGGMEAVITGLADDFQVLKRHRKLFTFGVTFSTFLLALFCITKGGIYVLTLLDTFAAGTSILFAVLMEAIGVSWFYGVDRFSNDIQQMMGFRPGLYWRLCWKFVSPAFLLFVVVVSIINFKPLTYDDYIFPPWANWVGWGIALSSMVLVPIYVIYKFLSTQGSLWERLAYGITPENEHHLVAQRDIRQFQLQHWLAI

SMILES	AC50 [1]	AC50 (Mu-type opioid receptor)	AC50 (D(3) dopamine receptor)	AC50 (Estrogen receptor)	AC50 [2]	AC50 [3]	AC50 (Thromboxane A2 receptor [4])	AC50 (Acetylcholinesterase)	AC50 [5]	AC50 [6]	AC50 [7]	AC50 (Adenosine receptor A3)	AC50 (Thromboxane A2 receptor [8])
NC(=O)NCCC[C@H](N)C(=O)O [L-CITRULLINE]	> 30 µM	> 30 µM	> 30 µM	> 30 µM	> 30 µM	> 30 µM	> 30 µM	> 30 µM	> 30 µM	> 30 µM	> 30 µM	> 30 µM	> 30 µM
CC(=O)O[C@H]1C[C@H](O[C@H]2[C@@H](O)C[C@H](O[C@H]3[C@@H](O)C[C@H](O[C@H]4CC[C@@]5(C)[C@H](CC[C@@H]6[C@@H]5C[C@@H](O)[C@]5(C)[C@@H](C7=CC(=O)OC7)CC[C@]65O)C4)O[C@@H]3C)O[C@@H]2C)O[C@H](C)[C@H]1O[C@@H]1O[C@H](CO)[C@@H](O)[C@H](O)[C@H]1O [LANATOSIDE C]	> 30 µM	> 30 µM	> 30 µM	> 30 µM	> 30 µM	> 30 µM	> 30 µM	> 30 µM	> 30 µM	> 30 µM	> 30 µM	> 30 µM	> 30 µM
Nc1nc(N)nc(Nc2ccc([As]3SCC(CO)S3)cc2)n1 (centres undefined) [MELARSOPROL]	> 30 µM	> 30 µM	> 30 µM	> 30 µM	> 30 µM	> 10 µM	> 30 µM	> 30 µM	> 30 µM	> 30 µM	> 30 µM	1.92 µM	> 30 µM
Cc1cc(CCN2CCN(c3cccc(Cl)c3)CC2)n[nH]1 [MEPIPRAZOLE]	> 30 µM	15.7 µM	0.0358 µM	> 30 µM	> 30 µM	2.71 µM	> 30 µM	> 30 µM	4.52 µM	> 30 µM	3.8 µM	> 30 µM	> 30 µM
CO[C@H]1[C@@H](O)C[C@H](O[C@H]2[C@@H](O)C[C@H](O[C@H]3[C@@H](O)C[C@H](O[C@H]4CC[C@@]5(C)[C@H](CC[C@@H]6[C@@H]5C[C@@H](O)[C@]5(C)[C@@H](C7=CC(=O)OC7)CC[C@]65O)C4)O[C@@H]3C)O[C@@H]2C)O[C@@H]1C [METILDIGOXIN]	> 30 µM	> 30 µM	> 30 µM	> 30 µM	> 30 µM	> 30 µM	> 30 µM	> 30 µM	> 30 µM	> 30 µM	> 30 µM	> 30 µM	> 30 µM
CCOC(=O)[C@H](CCc1ccccc1)N[C@@H](C)C(=O)N1Cc2cc(OC)c(OC)cc2C[C@H]1C(=O)O [MOEXIPRIL]	> 30 µM	> 30 µM	> 30 µM	> 30 µM	> 30 µM	> 30 µM	> 30 µM	> 30 µM	> 30 µM	25.4 µM	> 30 µM	> 30 µM	> 30 µM
N[C@@H](Cc1c[nH]c2ccc(O)cc12)C(=O)O [OXITRIPTAN]	> 30 µM	> 30 µM	> 30 µM	> 30 µM	> 30 µM	> 30 µM	> 30 µM	> 30 µM	> 30 µM	> 30 µM	15.5 µM	0.765 µM	> 30 µM
C1CNCCN1 [PIPERAZINE]	> 30 µM	> 30 µM	> 30 µM	> 30 µM	> 30 µM	> 30 µM	> 30 µM	> 30 µM	> 30 µM	> 30 µM	> 30 µM	> 30 µM	> 30 µM
